Source: patent US20250032460A1, “METHODS OF TREATING NEUROLOGICAL DISORDERS” (MapLight Therapeutics, Inc., priority 2021, published 2025)
Where “and” joins values, the source holds several entries; their conditions need not be identical. Equal values may be shown once.

Legend:
[1] = Single ascending dose study: pharmacokinetics (plasma, CSF); assay type: in vivo; conditions: Group 2, fesoterodine fumarate 8 mg 4 hours prior to 40 mg Compound 1
Experimental: Compound 1 was administered in a single ascending dose (SAD) study conducted in approximately 54 healthy adult volunteers to investigate Compound 1 pharmacokinetics, safety, and tolerability. The study was conducted in two groups.
Group 2 evaluated tolerability of Compound 1 at Group 1 MTD with or without fesoterodine fumarate co-administration. Subjects received 8 mg of fesoterodine fumarate tablet or matched placebo tablet 4 hours prior to administration of 40 mg of Compound 1.

[2] = Plasma concentrations during 7-day oral dosing in beagle dogs; assay type: in vivo
[3] = Group 2: fesoterodine fumarate 3 mg/kg/day PO alone, Day 1, 0.25 h
[4] = Group 2: fesoterodine fumarate 3 mg/kg/day PO alone, Day 1, 0.5 h
[5] = Group 2: fesoterodine fumarate 3 mg/kg/day PO alone, Day 1, 1 h
[6] = Group 2: fesoterodine fumarate 3 mg/kg/day PO alone, Day 1, 2 h
[7] = Group 2: fesoterodine fumarate 3 mg/kg/day PO alone, Day 1, 4 h
[8] = Group 2: fesoterodine fumarate 3 mg/kg/day PO alone, Day 1, 8 h
[9] = Group 2: fesoterodine fumarate 3 mg/kg/day PO alone, Day 7, 0.25 h
[10] = Group 2: fesoterodine fumarate 3 mg/kg/day PO alone, Day 7, 0.5 h
[11] = Group 2: fesoterodine fumarate 3 mg/kg/day PO alone, Day 7, 1 h
[12] = Group 2: fesoterodine fumarate 3 mg/kg/day PO alone, Day 7, 2 h
[13] = Group 2: fesoterodine fumarate 3 mg/kg/day PO alone, Day 7, 4 h
[14] = Group 2: fesoterodine fumarate 3 mg/kg/day PO alone, Day 7, 8 h
[15] = Group 3: Compound 1 1.5 mg/kg/day PO + fesoterodine fumarate 3 mg/kg/day PO, Day 1, 0.250 h
[16] = Group 3: Compound 1 1.5 mg/kg/day PO + fesoterodine fumarate 3 mg/kg/day PO, Day 1, 0.500 h
[17] = Group 3: Compound 1 1.5 mg/kg/day PO + fesoterodine fumarate 3 mg/kg/day PO, Day 1, 0.750 h
[18] = Group 3: Compound 1 1.5 mg/kg/day PO + fesoterodine fumarate 3 mg/kg/day PO, Day 1, 1.00 h

Compound: CC(C)N(CCC(c1ccccc1)c1cc(CO)ccc1O)C(C)C (stereo not shown) [desfesoterodine, 5-hydroxymethyl tolterodine]
- mean desfesoterodine concentration in CSF at 1hour after administration of compound 1 [1]: 121.44 pg/mL
- Plasma concentration of desfesoterodine, Mean [2, 3]: 87.775 ng/mL
- Plasma concentration of desfesoterodine, individual animals D2001-D2005 [2, 3]: 34.2 ng/ml and 267 ng/ml and 14 ng/ml and BQL and 35.9 ng/ml
- Plasma concentration of desfesoterodine, Mean [2, 4]: 75.32 ng/mL
- Plasma concentration of desfesoterodine, individual animals D2001-D2005 [2, 4]: 68.4 ng/mL and 176 ng/mL and 75.3 ng/mL and 23.2 ng/mL and 33.7 ng/mL
- Plasma concentration of desfesoterodine, Mean [2, 5]: 53.38 ng/mL
- Plasma concentration of desfesoterodine, individual animals D2001-D2005 [2, 5]: 31.9 ng/mL and 104 ng/mL and 49.5 ng/mL and 67.6 ng/mL and 13.9 ng/mL
- Plasma concentration of desfesoterodine, Mean [2, 6]: 25.296 ng/mL
- Plasma concentration of desfesoterodine, individual animals D2001-D2005 [2, 6]: 15.6 ng/mL and 48.4 ng/mL and 15.7 ng/mL and 41.4 ng/mL and 5.38 ng/mL
- Plasma concentration of desfesoterodine, Mean [2, 7]: 10.096 ng/mL
- Plasma concentration of desfesoterodine, individual animals D2001-D2005 [2, 7]: 12.9 ng/mL and 15.4 ng/mL and 3.93 ng/mL and 14.9 ng/mL and 3.35 ng/mL
- Plasma concentration of desfesoterodine, Mean [2, 8]: 3.3175 ng/mL
- Plasma concentration of desfesoterodine, individual animals D2001-D2005 [2, 8]: 4.42 ng/ml and 1.74 ng/ml and 2.96 ng/ml and 4.15 ng/ml and BQL
- Plasma concentration of desfesoterodine, individual animals D2001-D2005 ([2]; Group 2: fesoterodine fumarate 3 mg/kg/day PO alone, Day 1, 24 h): BQL
- Plasma concentration of desfesoterodine, individual animals D2001-D2005 ([2]; Group 2: fesoterodine fumarate 3 mg/kg/day PO alone, Day 7, 0 h): 1.13 ng/ml and BQL (4×)
- Plasma concentration of desfesoterodine, Mean [2, 9]: 103.4 ng/mL
- Plasma concentration of desfesoterodine, individual animals D2001-D2005 [2, 9]: 15.3 ng/mL and 315 ng/mL and 121 ng/mL and 47.3 ng/mL and 18.4 ng/mL
- Plasma concentration of desfesoterodine, Mean [2, 10]: 167.64 ng/mL
- Plasma concentration of desfesoterodine, individual animals D2001-D2005 [2, 10]: 318 ng/mL and 274 ng/mL and 154 ng/mL and 75.6 ng/mL and 16.6 ng/mL
- Plasma concentration of desfesoterodine, Mean [2, 11]: 118.7 ng/mL
- Plasma concentration of desfesoterodine, individual animals D2001-D2005 [2, 11]: 173 ng/mL and 232 ng/mL and 111 ng/mL and 65.7 ng/mL and 11.8 ng/mL
- Plasma concentration of desfesoterodine, Mean [2, 12]: 78.62 ng/mL
- Plasma concentration of desfesoterodine, individual animals D2001-D2005 [2, 12]: 91.9 ng/mL and 145 ng/mL and 72.6 ng/mL and 57.8 ng/mL and 25.8 ng/mL
- Plasma concentration of desfesoterodine, Mean [2, 13]: 45.66 ng/mL
- Plasma concentration of desfesoterodine, individual animals D2001-D2005 [2, 13]: 51.4 ng/mL and 48.6 ng/mL and 44 ng/mL and 40.8 ng/mL and 43.5 ng/mL
- Plasma concentration of desfesoterodine, Mean [2, 14]: 8.066 ng/mL
- Plasma concentration of desfesoterodine, individual animals D2001-D2005 [2, 14]: 8.12 ng/mL and 7.08 ng/mL and 6.52 ng/mL and 13.8 ng/mL and 4.81 ng/mL
- Plasma concentration of desfesoterodine, individual animals D2001-D2005 ([2]; Group 2: fesoterodine fumarate 3 mg/kg/day PO alone, Day 7, 24 h): BQL
- Plasma concentration of desfesoterodine, individual animals D3001-D3005 ([2]; Group 3: Compound 1 1.5 mg/kg/day PO + fesoterodine fumarate 3 mg/kg/day PO, Day 1, 0.00 h): BQL
- Plasma concentration of desfesoterodine, Mean [2, 15]: 125 ng/mL
- Plasma concentration of desfesoterodine, individual animals D3001-D3005 [2, 15]: 225 ng/mL and 35.2 ng/mL and 333 ng/mL and 23.3 ng/mL and 9.33 ng/mL
- Plasma concentration of desfesoterodine, Mean [2, 16]: 111 ng/mL
- Plasma concentration of desfesoterodine, individual animals D3001-D3005 [2, 16]: 154 ng/mL and 58.0 ng/mL and 257 ng/mL and 35.9 ng/mL and 52.4 ng/mL
- Plasma concentration of desfesoterodine, Mean [2, 17]: 100 ng/mL
- Plasma concentration of desfesoterodine, individual animals D3001-D3005 [2, 17]: 136 ng/mL and 35.1 ng/mL and 203 ng/mL and 64.7 ng/mL and 61.3 ng/mL
- Plasma concentration of desfesoterodine, Mean [2, 18]: 66.6 ng/mL
- Plasma concentration of desfesoterodine, individual animals D3001-D3005 [2, 18]: 96.0 ng/mL and 30.6 ng/mL and 149 ng/mL and 15.8 ng/mL and 41.5 ng/mL
